Results taken from patent publication US20260159815A1, “METHODS OF CULTURING CARDIAC CELLS AND USE OF CELLS FOR DISEASE MODELING” (Technion Research & Development Foundation Limited, priority 2023, published 2026).

Tested on: iPSC-derived cardiomyocytes
Test: RT-qPCR of selected sarcomere genes (TNNI1, TNNI3)
Assay type: cell-based, human
Conditions: Torin1 10 nM and 25 nM, maturation media groups (3 mM glucose)
Procedure: Gene expression (RT-qPCR): RNA was extracted from cells using […], then reverse transcribed to cDNA with the Iscript™ cDNA Synthesis Kit (Bio-Rad, US). The quantitative polymerase chain reaction was performed using the Lightcycler® 480 SYBR Green I Master (syber green) (Roche, Switzerland).
Cardiomyocyte maturation: hiPSCs were differentiated into cardiomyocytes as follows. On day 0, the hiPSC medium was replaced with CDM3 media supplemented with 6 μM CHIR99021 (R&D Systems, US) to induce differentiation toward a mesodermal fate. After 48 hours the same medium was use, supplemented with 2 μM of Wnt-C59 (Selleck Chemicals, US). After 48 hours, the medium was replaced with RPMI-B27-insulin (Thermo Fisher Scientific, US). On day 10, maturation process was started with the replacement of the medium with maturation media. This process continued for 14 days during which Torin1 was added only in the first 7 days. At the end of the process, several criteria were tested to characterize the maturation of the CMs and the other supporting cells. […]

CCC(=O)N1CCN(c2ccc(-n3c(=O)ccc4cnc5ccc(-c6cnc7ccccc7c6)cc5c43)cc2C(F)(F)F)CC1 [Torin1]
TNNI3 mRNA expression: trended toward increased expression of TNNI3 mRNA expression in a dose-dependent manner
